The test system of one assay is rodent GSK3β homologs. The note with it: cited from earlier work.
For assay [1], the system named is EDNRB−/− hESC-derived ENC precursors. Put plainly: Colon migration after transplantation of pre-treated EDNRB−/− ENC precursors into NSG mice. To be noted: EDNRB-null precursors pre-treated for 72 hours before transplantation, 2 weeks. Type of assay: in vivo, human cells in NSG mice. As to the method:
All mouse procedures were performed following NIH guidelines, and were approved by the local Institutional Animal Care and Use Committee (IACUC), the Institutional Biosafety Committee (IBC) as well as the Embryonic Stem Cell Research Committee (ESCRO). 3-6 week old male NSG (NOD.Cg-Prkdc^scid Il2rg^tm1Wjl/SzJ) mice or 2-3 weeks old EDNRB^s-l/s-l (SSL/LeJ) mice^39 (n=12, 6 male, 6 female) were used for these studies. […] Animals were randomly selected for the various treatment paradigms (NSG and EDNRB^s-l/s-l) but assuring for equal distribution of male/female ratio in each group (EDNRB^s-l/s-l). Animals were anesthetized with isoflurane (1%) throughout the procedure, a small abdominal incision was made, abdominal wall musculature lifted and the cecum is exposed and exteriorized. Warm saline was used to keep the cecum moist. 20 μl of cell suspension (2-4 million RFP+CD49D purified hESC-derived ENC precursors) in 70% matrigel (BD Biosciences, 354234) in PBS or 20 μl of 70% matrigel in PBS only (control grafted animals) were slowly injected into the cecum (targeting the muscle layer) using a 27-gauge needle. […]
The harvested colon samples were fixed in 4% PFA at 4° C. overnight before imaging. Imaging was performed using Maestro fluorescence imaging system (Biotechniques). […]

The test system of assay [2] is CD49D purified EDNRB−/− hESC-derived ENC. In words: Scratch (migration) assay on EDNRB−/− ENC precursors. Type of assay: cell-based, human. As to the method:
The ENC cells were plated on PO/LM/FN coated (prepared as described previously^38) 96 well or 48 well culture plates (30,000/cm^2). 24 hours later the culture lawn was scratched manually using a pipette tip. The cells were given an additional 24-48 hours to migrate into the scratch area and fixed for imaging and quantification. The quantification was based on the percentage of the nuclei that are located in the scratch area after the migration period. The scratch area was defined using a reference well that was fixed immediately after scratching. Migration of cells were quantified using the open source data analysis software KNIME^41 (http://knime.org) with the “Quantification in ROI” plug-in as described in detail elsewhere^42.
The chemical compound screening was performed using the Prestwick Chemical Library®. The ENC cells were plated in 96 well plates (30,000/cm^2) and scratched manually 24 hours before addition of the compounds. The cells were treated with two concentrations of the compounds (10 μM and 1 μM). The plates were fixed 24 hours later for total plate imaging. The compounds were scores based on their ability to promote filling of the scratch in 24 hours. […] The hits were further validated to ensure reproducibility. The cells were treated with various concentrations of the selected hit compound (Pepstatin A) for dose response analysis. The optimal dose (10 μM-based on optimal response and viability) was used for follow-up experiments. For the pre-treatment experiments, cells were CD49D purified at day 11 and treated with Pepstatin A from day 12 through day 15 followed by transplantation into the colon wall of NSG mice.
To inhibit BACE2, the ENC precursors were treated with 1 μM β-Secretase Inhibitor IV (CAS 797035-11-1—Calbiochem). […] The Knockdown was confirmed by qRT-PCR measurement of BACE2 mRNA levels in cells transfected with the BACE2 siRNAs vs. the control siRNA pool (ON-TARGETplus Non-targeting Pool, Dharmacon, D-001810-10-05). The transfected cells were scratched 24 hours after plating and fixed 48 hours later for migration quantification.

Where a SMILES comes first, the peptide text is derived from it. [ ]: non-standard residue; d: D form. The star is where a group is joined. Sta = CC(C)C[C@H](N)[C@@H](O)CC(=O)O; Isovaleryl = CC(C)CC(=O)*

`Cc1c[nH]c(-c2cnc(NCCNc3ccc(C#N)cn3)nc2-c2ccc(Cl)cc2Cl)n1` [CHIR99021, 6-(2-(4-(2,4-dichlorophenyl)-5-(4-methyl-1H-imidazol-2-yl)pyrimidin-2-ylamino)ethylamino)nicotinonitrile]: in the assay with rodent GSK3β homologs, the “IC50 values against rodent GSK3β homologs” value is “nanomolar”.

With `CC(C)CC(=O)N[C@H](C(=O)N[C@H](C(=O)N[C@@H](CC(C)C)[C@@H](O)CC(=O)N[C@@H](C)C(=O)N[C@@H](CC(C)C)[C@@H](O)CC(=O)O)C(C)C)C(C)C` [Pepstatin A] (Isovaleryl-VV[Sta]A[Sta]-OH), the “rescue of in vivo migration behavior in adult colon” value in assay [1] is “significant rescue of the in vivo migration behavior”. Moreover, the “rescue of the migration defect in scratch assay” value in assay [2] (EDNRB−/− hESC derived NC precursors, range of concentrations, treatment started 24 hrs before scratching) is given as “dose-dependent, near complete rescue of the migration defect”. Moreover, the “optimal dose (based on optimal response and viability)” value in assay [2] (dose response analysis, EDNRB−/− ENC) worked out at 10 µM.

On to BACE inhibitor IV, for which the “rescue of the migration defect in scratch assay” value in assay [2] (EDNRB−/− hESC-derived ENC, 1 μM) is on record as “rescued the migration defect”.

The record behind these values is patent US12371662B2, “Cell-based treatment and drug discovery in Hirschsprung's disease enabled by pluripotent stem cell-derived human enteric neural crest lineages” (MEMORIAL SLOAN-KETTERING CANCER CENTER, priority 2015, dated 2025).
